Source: patent publication US20150105252A1, “SUBSTITUTED PYRAZOLES AS HERBICIDES” (E I DU PONT DE NEMOURS AND COMPANY, priority 2013, published 2015)

What was measured:
galium = experiment: Test D preemergence; assay type: in vivo, Galium aparine; settings: scale 0 to 100
How it was run: (§1)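 Preemergence: seeds sown in silt loam soil and sprayed with test chemical in non-phytotoxic solvent mixture with surfactant. Postemergence: plants grown in peat/vermiculite medium, sprayed at 2–18 cm (1- to 4-leaf stage). Visual rating versus untreated controls after 14–21 days, 0 (no effect) to 100 (complete control).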

kochia = experiment: Test D preemergence; assay type: in vivo, Kochia scoparia; settings: scale 0 to 100
How it was run: as §1

common waterhemp = experiment: Test F preemergence; assay type: in vivo, Amaranthus rudis
How it was run: (§2)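 Visual injury was scored from 0 (none) to 100 (complete control) relative to untreated controls after 14–21 days in a greenhouse. Before that, formulated compound (solvent plus surfactant) was sprayed either on silt-loam soil right after sowing or on emerged plants at the 1–4-leaf stage, 2–18 cm tall.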

large crabgrass = experiment: Test F preemergence; assay type: in vivo, Digitaria sanguinalis
How it was run: as §2

bromegrass, downy = experiment: Test D postemergence; assay type: in vivo, Bromus tectorum; settings: scale 0 to 100
How it was run: as §1

Italian ryegrass = experiment: Test F preemergence; assay type: in vivo, Lolium multiflorum
How it was run: as §2

wheat, spring = experiment: Test D preemergence; assay type: in vivo, Triticum aestivum; settings: scale 0 to 100
How it was run: as §1

wheat, winter = experiment: Test D preemergence; assay type: in vivo, Triticum aestivum; settings: scale 0 to 100
How it was run: as §1

goosegrass = experiment: Test F preemergence; assay type: in vivo, Eleusine indica
How it was run: as §2

buckwheat, wild = experiment: Test D preemergence; assay type: in vivo, Polygonum convolvulus; settings: scale 0 to 100
How it was run: as §1

canarygrass [1] = experiment: Test D postemergence; assay type: in vivo, Phalaris minor; settings: scale 0 to 100
How it was run: as §1

canarygrass [2] = experiment: Test D preemergence; assay type: in vivo, Phalaris minor; settings: scale 0 to 100
How it was run: as §1

mustard, wild = experiment: Test D postemergence; assay type: in vivo, Sinapis arvensis; settings: scale 0 to 100
How it was run: as §1

blackgrass = experiment: Test D preemergence; assay type: in vivo, Alopecurus myosuroides; settings: scale 0 to 100
How it was run: as §1

[3] = Preemergence, 62 g ai/ha, scale 0 to 100
[4] = Preemergence, 125 g ai/ha, scale 0 to 100
[5] = preemergence, 8 g ai/ha, scale 0 to 100, 100 is complete control

CCOc1cc(C(=O)NC(C)C)nn1Cc1ccnc(C(F)(F)F)c1 [Compound 188]
Plant response rating, Galium (galium; 62 g ai/ha): 95
Plant response rating, Galium (galium; 125 g ai/ha): 100
Plant response rating, Galium (galium; 250 g ai/ha): 100
Plant response rating, Kochia (kochia; 62 g ai/ha): 100
Plant response rating, Kochia (kochia; 125 g ai/ha): 100
Plant response rating, Kochia (kochia; 250 g ai/ha): 100
Plant response rating, Common Waterhemp (common waterhemp; Preemergence, 16 g ai/ha, scale 0 to 100): 100
Plant response rating, Common Waterhemp (common waterhemp; [3]): 100
Plant response rating, Common Waterhemp (common waterhemp; [4]): 100
Plant response rating, Common Waterhemp (common waterhemp; [5]): 85
Plant response rating, Large Crabgrass (large crabgrass; [3]): 100
Plant response rating, Large Crabgrass (large crabgrass; [4]): 100
Plant response rating, Large Crabgrass (large crabgrass; [5]): 90
Plant response rating, Large Crabgrass (large crabgrass; preemergence, scale 0 to 100, 100 is complete control): 100
Bromegrass, Downy plant response rating (bromegrass, downy; Postemergence, 31 g ai/ha): 15
Bromegrass, Downy plant response rating (bromegrass, downy; Postemergence, 125 g ai/ha): 15
Bromegrass, Downy plant response rating (bromegrass, downy; Postemergence, 250 g ai/ha): 20
Bromegrass, Downy plant response rating (bromegrass, downy; postemergence, 62 g ai/ha): 15
Plant response rating, Italian Ryegrass (Italian ryegrass; [3]): 70
Plant response rating, Italian Ryegrass (Italian ryegrass; [4]): 80
Plant response rating, Italian Ryegrass (Italian ryegrass; [5]): 0
Plant response rating, Wheat, Spring (wheat, spring; 62 g ai/ha): 70
Plant response rating, Wheat, Spring (wheat, spring; 125 g ai/ha): 100
Plant response rating, Wheat, Spring (wheat, spring; 250 g ai/ha): 100
Plant response rating, Wheat, Winter (wheat, winter; 62 g ai/ha): 65
Plant response rating, Wheat, Winter (wheat, winter; 125 g ai/ha): 95
Plant response rating, Wheat, Winter (wheat, winter; 250 g ai/ha): 100
Plant response rating, Goosegrass (goosegrass; [3]): 98
Plant response rating, Goosegrass (goosegrass; [4]): 100
Plant response rating, Goosegrass (goosegrass; [5]): 5
Plant response rating, Buckwheat, Wild (buckwheat, wild; 31 g ai/ha): 100
Plant response rating, Buckwheat, Wild (buckwheat, wild; 62 g ai/ha): 100
Plant response rating, Buckwheat, Wild (buckwheat, wild; 125 g ai/ha): 100
Plant response rating, Buckwheat, Wild (buckwheat, wild; 250 g ai/ha): 100
Canarygrass plant response rating (canarygrass [1]; Postemergence, 31 g ai/ha): 15
Canarygrass plant response rating (canarygrass [1]; Postemergence, 125 g ai/ha): 20
Canarygrass plant response rating (canarygrass [1]; Postemergence, 250 g ai/ha): 35
Canarygrass plant response rating (canarygrass [1]; postemergence, 62 g ai/ha): 15
Plant response rating, Canarygrass (canarygrass [2]; 31 g ai/ha): 55
Plant response rating, Canarygrass (canarygrass [2]; 62 g ai/ha): 95
Plant response rating, Canarygrass (canarygrass [2]; 125 g ai/ha): 100
Plant response rating, Canarygrass (canarygrass [2]; 250 g ai/ha): 100
Mustard, Wild plant response rating (mustard, wild; Postemergence, 31 g ai/ha): 50
Mustard, Wild plant response rating (mustard, wild; Postemergence, 125 g ai/ha): 60
Mustard, Wild plant response rating (mustard, wild; Postemergence, 250 g ai/ha): 85
Mustard, Wild plant response rating (mustard, wild; postemergence, 62 g ai/ha): 50
Plant response rating, Blackgrass (blackgrass; 31 g ai/ha): 55
Plant response rating, Blackgrass (blackgrass; 62 g ai/ha): 75
Plant response rating, Blackgrass (blackgrass; 125 g ai/ha): 100
Plant response rating, Blackgrass (blackgrass; 250 g ai/ha): 100
